From publication PMC4664558 (Clinical Pharmacology and Therapeutics, 2015)
Several values for one entry are separate records, joined by “and”; a condition that tells them apart may be missing. Identical values can stand only once. Like-named read-outs stand apart in the source and are kept apart here.

What was measured:
[1] = Peak plasma / gut / hepatic inlet concentration at the highest clinical dose; type: in vivo, human; details: for Maximal hepatic inlet concentration ([I]inlet,max): Cmax + (ka x Dose x FaFg/Qh); for Inhibitor concentration ([I]): [I] equal to Cmax
[2] = INPC cohort study: risk of myopathy after prescription of drug pairs; details: adjusted for age and sex; for Risk2 (myopathy risk for drug 2): drug 2 only
OATP1B2 = biological target: T1, OATP1B2 (Rattus norvegicus, UniProt Q9QZX8); experiment: Inhibition of E217βDG active uptake in cryopreserved rat hepatocytes; details: for Predicted R value: OATP1B1/1B3-based DDI, 1 + [I]inlet,max/Ki, Ki approximated by IC50; for inhibition at 3 min, 100 μM: rat, cryopreserved rat hepatocytes, probe [3H] β-estradiol 17-β-D-glucuronide (E217βDG), 1 μM, 0.1 μCi
T1 sequence (Q9QZX8 1-687): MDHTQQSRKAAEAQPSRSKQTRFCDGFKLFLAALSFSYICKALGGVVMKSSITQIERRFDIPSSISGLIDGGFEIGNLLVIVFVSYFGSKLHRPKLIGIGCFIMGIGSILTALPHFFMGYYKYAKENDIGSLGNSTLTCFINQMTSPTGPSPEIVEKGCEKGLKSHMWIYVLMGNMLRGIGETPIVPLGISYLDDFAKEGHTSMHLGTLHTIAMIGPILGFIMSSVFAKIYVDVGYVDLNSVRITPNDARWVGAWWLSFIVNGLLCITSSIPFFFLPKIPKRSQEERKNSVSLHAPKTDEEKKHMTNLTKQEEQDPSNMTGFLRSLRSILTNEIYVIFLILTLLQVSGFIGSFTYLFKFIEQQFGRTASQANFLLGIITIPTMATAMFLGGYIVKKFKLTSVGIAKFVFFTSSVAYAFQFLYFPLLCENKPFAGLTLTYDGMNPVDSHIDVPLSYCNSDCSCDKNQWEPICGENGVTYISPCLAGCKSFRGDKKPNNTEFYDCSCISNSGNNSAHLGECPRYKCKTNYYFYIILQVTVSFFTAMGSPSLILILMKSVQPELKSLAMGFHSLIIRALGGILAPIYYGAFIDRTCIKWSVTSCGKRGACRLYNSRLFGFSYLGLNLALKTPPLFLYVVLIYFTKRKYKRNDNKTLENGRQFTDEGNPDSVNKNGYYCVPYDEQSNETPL

rat L6 myotubes = experiment: Myotoxicity in rat L6 myotubes; type: cell-based; details: 10 μM for 5 days, compared to DMSO control
[3] = peak total plasma concentration at the highest clinical dose; cited from earlier work
CYP2D6 [4] = biological target: T2, CYP2D6 (Homo sapiens, UniProt P10635); experiment: biochemical
T2 sequence (P10635 whole entry): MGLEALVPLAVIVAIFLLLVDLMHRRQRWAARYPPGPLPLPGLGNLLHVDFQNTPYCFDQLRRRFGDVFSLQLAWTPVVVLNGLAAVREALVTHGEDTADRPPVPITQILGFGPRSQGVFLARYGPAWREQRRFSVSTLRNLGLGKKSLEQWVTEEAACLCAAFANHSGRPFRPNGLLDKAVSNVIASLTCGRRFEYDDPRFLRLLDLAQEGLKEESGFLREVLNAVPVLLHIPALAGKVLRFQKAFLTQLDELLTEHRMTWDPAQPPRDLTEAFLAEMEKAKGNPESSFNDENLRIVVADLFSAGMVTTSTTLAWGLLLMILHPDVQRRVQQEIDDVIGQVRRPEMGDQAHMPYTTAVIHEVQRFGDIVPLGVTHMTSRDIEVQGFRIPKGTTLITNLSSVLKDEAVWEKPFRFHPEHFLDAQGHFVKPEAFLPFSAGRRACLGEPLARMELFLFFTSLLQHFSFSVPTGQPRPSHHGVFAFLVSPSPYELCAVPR

CYP2C19 = CYP2C19 (Homo sapiens, UniProt P33261); experiment: Fluorometric CYP inhibition assay; type: biochemical; details: for Ki: pathway CYP2C19
CYP2C19, sequence (P33261 whole entry): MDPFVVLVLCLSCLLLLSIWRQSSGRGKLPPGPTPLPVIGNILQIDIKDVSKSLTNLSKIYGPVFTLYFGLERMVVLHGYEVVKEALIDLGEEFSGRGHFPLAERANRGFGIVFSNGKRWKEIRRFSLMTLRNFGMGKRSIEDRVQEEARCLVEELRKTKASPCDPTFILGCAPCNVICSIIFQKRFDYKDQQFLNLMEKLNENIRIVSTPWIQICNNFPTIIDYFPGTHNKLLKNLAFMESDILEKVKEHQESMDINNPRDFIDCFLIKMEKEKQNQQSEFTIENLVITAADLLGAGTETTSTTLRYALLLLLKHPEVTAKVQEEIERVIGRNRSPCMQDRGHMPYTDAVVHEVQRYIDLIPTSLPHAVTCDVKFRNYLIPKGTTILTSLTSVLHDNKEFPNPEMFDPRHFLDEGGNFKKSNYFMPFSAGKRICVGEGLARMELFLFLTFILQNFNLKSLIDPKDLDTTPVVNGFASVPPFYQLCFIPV

CYP2C9 [5] = biological target: T3, CYP2C9 (Homo sapiens, UniProt P11712)
T3 sequence (P11712 whole entry): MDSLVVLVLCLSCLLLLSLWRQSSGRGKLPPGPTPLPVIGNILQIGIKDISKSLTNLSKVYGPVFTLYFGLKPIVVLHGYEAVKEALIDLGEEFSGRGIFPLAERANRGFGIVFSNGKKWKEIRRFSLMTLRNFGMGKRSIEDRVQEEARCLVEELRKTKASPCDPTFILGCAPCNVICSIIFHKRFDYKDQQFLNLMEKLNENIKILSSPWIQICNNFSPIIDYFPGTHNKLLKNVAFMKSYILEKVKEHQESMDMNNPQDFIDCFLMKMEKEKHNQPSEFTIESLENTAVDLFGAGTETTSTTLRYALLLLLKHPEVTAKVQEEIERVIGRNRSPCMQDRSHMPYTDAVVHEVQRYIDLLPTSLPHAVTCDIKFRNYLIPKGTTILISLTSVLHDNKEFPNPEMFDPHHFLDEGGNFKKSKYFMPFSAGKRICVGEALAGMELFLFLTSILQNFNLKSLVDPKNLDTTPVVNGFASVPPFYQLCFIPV

CYP2D6 [6] = biological target: T2, CYP2D6
CYP3A4 = CYP3A4 (Homo sapiens, UniProt P08684)
CYP3A4, sequence (P08684 whole entry): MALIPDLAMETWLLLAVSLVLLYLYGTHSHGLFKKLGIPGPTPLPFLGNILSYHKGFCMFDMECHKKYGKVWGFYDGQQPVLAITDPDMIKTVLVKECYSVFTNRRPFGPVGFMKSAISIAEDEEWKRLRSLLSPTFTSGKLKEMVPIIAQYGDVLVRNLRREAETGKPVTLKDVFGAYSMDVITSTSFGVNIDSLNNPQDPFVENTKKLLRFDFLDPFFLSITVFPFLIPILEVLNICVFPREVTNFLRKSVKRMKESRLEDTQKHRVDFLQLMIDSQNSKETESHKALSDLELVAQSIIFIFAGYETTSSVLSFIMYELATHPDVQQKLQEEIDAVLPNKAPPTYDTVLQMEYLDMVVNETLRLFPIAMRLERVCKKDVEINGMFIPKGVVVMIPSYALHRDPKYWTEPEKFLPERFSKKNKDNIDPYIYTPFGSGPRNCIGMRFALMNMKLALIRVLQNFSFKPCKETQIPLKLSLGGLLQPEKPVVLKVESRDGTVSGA

CYP2C9 [7] = biological target: T3, CYP2C9; experiment: biochemical; details: pathway CYP2C9
[8] = cited from earlier work
[9] = Dissociation constant (Ki), pathway CYP2D6
[10] = Unbound dissociation constant (Ki,u), pathway CYP2D6, Ki * fu,inc
[11] = Unbound dissociation constant (Ki,u), Ki * fu,inc

Structure (SMILES)	Maximal hepatic inlet concentration ([I]inlet,max) [1] [µM]	Risk2 (myopathy risk for drug 2) [2]	inhibition at 3 min, 100 μM (OATP1B2) [%]	myotube death (rat L6 myotubes) [%]	Inhibitor concentration ([I]) [1] [µM]	Peak plasma concentration (Cmax) [3]	also measured
Cc1nnc2n1-c1ccc(Cl)cc1C(c1ccccc1)=NC2 [Alprazolam]	0.981	0.029	54.5 ± 0.3				IC50 (OATP1B2): 99.5 µM; Predicted R value (OATP1B2): 1.01
Clc1ccc2c(c1)CCc1cccnc1C2=C1CCNCC1 [Desloratadine]				73.3 ± 1.1			
CCOC(=O)N1CCC(=C2c3ccc(Cl)cc3CCc3cccnc32)CC1 [Loratadine]					0.011		Risk1 (myopathy risk for drug 1) ([2]; drug 1 only): 0.022 and 0.020
COc1ccc2[nH]c([S+]([O-])Cc3ncc(C)c(OC)c3C)nc2c1 (stereo not drawn) [Omeprazole]	19.586	0.059	60.1 ± 4.8				IC50 (OATP1B2): 84.3 µM; Predicted R value (OATP1B2): 1.23
CC(CN1c2ccccc2Sc2ccccc21)N(C)C (stereo not drawn) [Promethazine]			17.7 ± 7.7		0.068	19.3 (36) ng/ml	Ki (CYP2D6 [4]; Dissociation constant (Ki)): 0.25 µM; Ki (CYP2D6 [4]; Unbound dissociation constant (Ki,u)): 0.22 µM
CCCN(CCC)CCc1cccc2c1CC(=O)N2 [Ropinirole]		0.018	23.7 ± 2.7		0.103	26.9 (37) ng/ml	Ki (CYP2D6 [4]; [9]): 0.85 µM; Ki (CYP2D6 [4]; [10]): 0.71 µM
CCC(C)(C)C(=O)O[C@H]1C[C@@H](C)C=C2C=C[C@H](C)[C@H](CC[C@@H](O)C[C@@H](O)CC(=O)O)[C@H]21 [Simvastatin acid]	12.274			33.0 ± 2.1			
CCC(C)(C)C(=O)O[C@H]1C[C@@H](C)C=C2C=C[C@H](C)[C@H](CC[C@@H]3C[C@@H](O)CC(=O)O3)[C@H]21 [Simvastatin]		0.033		73.7 ± 2.6			
[H]/N=C(/NCCCCC)N/N=C/c1c[nH]c2ccc(OC)cc12 [Tegaserod]		0.020	24.6 ± 15.3	97.9 ± 0.4	0.009	2.7 (39) ng/ml	Predicted R-values (CYP2C19): 1.00; Ki (CYP2C19; Dissociation constant (Ki)): 9.2 µM; Ki (CYP2C19; [11]): 8.48 µM; Predicted R-values (CYP2C9 [5]): 1.00; Predicted R-values (CYP2D6 [6]): 1.02; Predicted R-values (CYP3A4): 1.17; Ki (CYP2C9 [7]; Dissociation constant (Ki)): 11.4 µM; Ki (CYP2C9 [7]; [11]): 10.5 µM; Ki (CYP2D6 [4]; [9]): 0.51 µM; Ki (CYP2D6 [4]; [10]): 0.47 µM
COCc1c(C(C)C)nc(C(C)C)c(/C=C/[C@@H](O)C[C@@H](O)CC(=O)O)c1-c1ccc(F)cc1 [cerivastatin]							risk of rhabdomyolysis relative to other statins [8]: 10 fold; risk of rhabdomyolysis relative to other statins ([8]; with concurrent use of gemfibrozil): 50 fold
